Results from publication PMC10198977, “Computational design of dynamic receptor—peptide signaling complexes applied to chemotaxis” (Nature Communications, 2023).
Residues, ends and D or L forms follow the SMILES beside them. No end group written: not given here.

What was measured:
Format in all cases: cell-based
[1] = test system: Gαi activation; assay: Gαi dissociation BRET of designed receptors with WT CXCL12(1-17) peptide; design: Gαi BRET response: scale not given here; conditions: HEK 293T
Experimental: (§1) Lyophilized peptides were stored at −80 °C and resuspended in assay buffer on the day of the experiment.
(§2) 40,000 HEK 293T cells were transiently transfected with WT or variant HA3-CXCR4, Gαi1−91-Rluc8, Gβ3-WT, and Gγ9-GFP2 in pcDNA3.1(+) at a ratio of 10:1:10:5 respectively. Cells were first seeded in 100 µL DMEM 10% FBS in a poly-lysine coated, white-walled, white-bottom 96-well plate. Directly after cell loading, 50 µL of the mixture containing Lipofectamine 2000 and the DNA was added on top of the cells. The cells were then left to incubate at 37 °C, 5% CO2, and 95% relative humidity for 20 h, after which, 150 µL media was refreshed. Cells were assayed 48 h post-transfection. Cells were washed with 150 µL PBS, then 40 µL BRET buffer (HBSS, 0.2% Glucose) was added to each well. Coelenterazine 400a was first added at a final concentration of 2.5 µM and BRET ratios were measured once using Mithras[2] LB 943 plate reader. After the first measurement, 40 µL of a 3x concentrated agonist solution was added to each well, and BRET ratios were measured for another 30 min using a Mithras[2] LB 943 plate reader. Mock-transfected controls were subtracted from the data. Maximum values averaged from 3 replicates were then plotted against selected concentrations and fitted to a sigmoidal curve using GraphPad Prism v9.

[2] = biological target: Csedy (Homo sapiens, UniProt P61073); assay: Gαi BRET of peptides on Csedy; conditions: Csedy receptor; for Gi BRET (dEC50): vs WT:WT
Experimental: as §1, §2

[3] = test system: WT CXCR4 transduced primary human T cells; assay: Boyden chamber migration of T cells transduced with WT CXCR4; design: key to Migration Index: migrated cells toward chemokine / migrated cells without chemoattractant; conditions: for Migration Index: 100 nM full-length chemokine vs no chemoattractant, peak over 8 h, WT receptor
Experimental: (§3) Full-length chemokine purification
(§4) CXCL12 and variants expressed in pMS211 (pET21a-based) construct and purified as previously described. N-terminal His-tag and leader sequence cleaved with enterokinase to produce a final product with the correct N-terminal sequence. The final lyophilized protein was resuspended at 1 mg/ml in 0.1% BSA. Aliquots were snap frozen and stored at −80 °C.
(§5) Generation of human T cells expressing CXCR4 WT or variants
(§6) Peripheral blood mononuclear cells (PBMCs) were isolated from buffy coats by density gradient centrifugation (Lymphoprep, StemCell ref: 07851) and activated on plates coated with anti-CD3 ([…], Biolegend, ref: 317347, clone: OKT3) and anti-CD28 ([…], Biolegend, ref: 302934, clone: CD28.2) antibodies in T cell media (RPMI 10% FBS, 2 mM L-Glutamine, 1% Penicillin-Streptomycin) with IL-15 and IL-7 (Miltenyi Biotec, 10 ng/ml each, ref: 130-095-362 and ref: 130-095-765 respectively). The day before transduction, non-cell tissue culture treated 24-well plate (Greiner Bio-One, ref: 662102) was coated with retronectin (Takara Bio, ref: T100B) in PBS (7 μg/ml, 1 ml per well), and incubated overnight at 4 °C. Three days after activation, retronectin was removed and the plate was blocked with RPMI 10% FBS for 15 min at 37 °C. Then, media was removed and retroviral supernatant was centrifuged at 2000 × g, 1 h, 32 °C on retronectin-coated plates. Retroviral supernatant was gently removed and activated T cell suspension at 0.15 E^6 cells/ml was added, and centrifuged at 1000 × g, 10 min, 21 °C. Cells were incubated at 37 °C, 5% CO2, and 95% relative humidity for 3 days. After 48–72 h of transduction, T cells were harvested and further expanded in T cell media containing IL-7 and IL-15. Transduced T cells were positively selected with a PE selection kit (EasySep, ref: 17684) and an anti-HA PE-conjugated antibody (Biolegend, ref: 901518, clone: 16B12) at a 1:50 dilution to enrich transduced T cells. Enrichment of surface expression in PE-selected cells was confirmed by flow cytometry using a BD FACS LSR II cytometer (BD Biosciences) and analyzed with FlowJo software (BD Biosciences).
(§7) T cells transduced and selected for expression of CXCR4 variants from 3 to 6 donors were stained with 1 µM Vybrant DiO cell-labeling solution (Thermo, ref: V22886) in serum-free RPMI 1640 + GlutaMax. 40,000 cells in 75 µL were seeded in each well of 96-well Boyden chambers with 5.0 µm pores (Corning, ref: 3388)[44]. Reservoirs were filled with 200 µL serum-free RPMI 1640 + GlutaMax without chemoattractant or supplemented with 100 nM chemokine. The bottom of the attractant reservoir was imaged for migrated cells for 8 h with a Cytation 5 BioSpa (Biotek) at 37 °C with 5% CO2. Fluorescent spots were counted over time and compared to the no-chemoattractant control to calculate the migration index (# migrated cells towards chemoattractant / # migrated cells in absence of chemoattractant). The peak migration indices averaged between 3 technical replicates for each transduced donor per chemoattractant concentration were plotted.

[4] = test system: Csel2 transduced primary human T cells; assay: Boyden chamber migration of T cells transduced with Csel2; design: key: migrated cells toward chemokine / migrated cells without chemoattractant; conditions: 100 nM full-length chemokine vs no chemoattractant, peak over 8 h
Experimental: as §3, §4, §5, §6, §7

[5] = test system: Csedy transduced primary human T cells; assay: Boyden chamber migration of T cells transduced with Csedy; design: key: migrated cells toward chemokine / migrated cells without chemoattractant; conditions: 100 nM full-length chemokine vs no chemoattractant, peak over 8 h
Experimental: as §3, §4, §5, §6, §7

[6] = test system: Cdyn transduced primary human T cells; assay: Boyden chamber migration of T cells transduced with Cdyn; conditions: 100 nM full-length chemokine vs no chemoattractant, peak over 8 h
Experimental: as §3, §4, §5, §6, §7

[7] = biological target: WT CXCR4 (Homo sapiens, UniProt P61073); assay: Gαi BRET of peptides on WT CXCR4; conditions: for Gi BRET (dEC50): vs WT:WT, WT receptor
Experimental: as §1, §2

[8] = test system: Csel2; assay: Gαi BRET of peptides on Csel2; conditions: for Gi BRET (dEC50): vs WT:WT, Csel2 receptor
Experimental: as §1, §2

[9] = biological target: Cdyn (Homo sapiens, UniProt P61073, L41A/H113N/S178A); assay: Gαi BRET of peptides on Cdyn; design: Gi BRET (dEC50): unit not given here; conditions: Cdyn receptor; for Gi BRET (dEC50): vs WT:WT
Experimental: as §1, §2

Chain of Cdyn (P61073 whole entry L41A/H113N/S178A): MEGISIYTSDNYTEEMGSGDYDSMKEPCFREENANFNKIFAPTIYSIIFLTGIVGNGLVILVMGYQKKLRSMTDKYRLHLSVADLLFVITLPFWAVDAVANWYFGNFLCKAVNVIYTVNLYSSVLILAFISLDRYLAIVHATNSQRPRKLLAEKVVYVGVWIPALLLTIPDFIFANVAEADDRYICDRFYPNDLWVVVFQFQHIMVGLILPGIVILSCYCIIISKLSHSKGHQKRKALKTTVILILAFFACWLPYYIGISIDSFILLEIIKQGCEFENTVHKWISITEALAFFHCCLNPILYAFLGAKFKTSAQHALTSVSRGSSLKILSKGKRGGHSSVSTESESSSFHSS
Chain of WT CXCR4 (P61073 whole entry): as the sequence (P61073 whole entry L41A/H113N/S178A) above, with A41L, N113H, A178S counted along it
Chain of Csedy (P61073 whole entry): as the sequence (P61073 whole entry L41A/H113N/S178A) above, with A41L, N113H, A178S counted along it

WT CXCR4: WT CXCR4 with an N-terminal 3xHA-tag
Gαi BRET response ([1]; log[WT CXCL12(1-17)] -4.17653, replicate 1): 84.4534
Gαi BRET response ([1]; log[WT CXCL12(1-17)] -4.17653, replicate 2): 83.4696
Gαi BRET response ([1]; log[WT CXCL12(1-17)] -4.65365, replicate 1): 62.5022
Gαi BRET response ([1]; log[WT CXCL12(1-17)] -4.65365, replicate 2): 62.6195
Gαi BRET response ([1]; log[WT CXCL12(1-17)] -5.13077, replicate 1): 35.993
Gαi BRET response ([1]; log[WT CXCL12(1-17)] -5.13077, replicate 2): 39.2443
Gαi BRET response ([1]; log[WT CXCL12(1-17)] -5.60789, replicate 1): 12.5404
Gαi BRET response ([1]; log[WT CXCL12(1-17)] -5.60789, replicate 2): 16.9401
Gαi BRET response ([1]; log[WT CXCL12(1-17)] -6.08501, replicate 1): 10.2917
Gαi BRET response ([1]; log[WT CXCL12(1-17)] -6.08501, replicate 2): 3.156
Gαi BRET response ([1]; log[WT CXCL12(1-17)] -8, replicate 1): -1.029
Gαi BRET response ([1]; log[WT CXCL12(1-17)] -8, replicate 2): 1.036

V3W-Y7L: CXCL12(1-17) peptide variant V3W-Y7L (KPWSLSLRCPCRFFESH-NH2; cysteine pairing not given here; UniProt P48061 22-38, looked up, variant V3W Y7L)
Efficacy, Gi ([2]; mean): 135.5 %WT-WT
Gi BRET (dEC50) ([2]; replicate 1): -1.6525
Gi BRET (dEC50) ([2]; replicate 2): -2.5125
Gi BRET (dEC50) ([2]; replicate 3): -1.456

full-length WT: full-length WT CXCL12 chemokine [reference compound]
enhanced migration ([3]; 100 nM WT CXCL12, vs no-attractant controls, WT CXCR4): around 1.5 -fold
Migration Index ([3]; donor/replicate 1): 1.882
Migration Index ([3]; donor/replicate 2): 1.899
Migration Index ([3]; donor/replicate 3): 1.407
Migration Index ([3]; donor/replicate 4): 0.96
Migration Index ([4]; donor/replicate 1): 3.533
Migration Index ([4]; donor/replicate 2): 2.962
Migration Index ([4]; donor/replicate 3): 2.156
Migration Index ([4]; donor/replicate 4): 3.087
Migration Index ([4]; donor/replicate 5): 2.058
Migration Index ([5]; donor/replicate 1): 4.556
Migration Index ([5]; donor/replicate 2): 4.556
Migration Index ([5]; donor/replicate 3): 4.738
Migration Index ([5]; donor/replicate 4): 4.774
Migration Index ([6]; donor/replicate 1): 3.5
Migration Index ([6]; donor/replicate 2): 2.758
Migration Index ([6]; donor/replicate 3): 2.302

Y7L: CXCL12(1-17) peptide variant, Leu at P7 (KPVSLSLRCPCRFFESH-NH2; cysteine pairing not given here)
decrease in overall Gαi response ([7]; WT receptor (Fig. 3a)): 18%
Gi BRET (dEC50) ([7]; replicate 1): 0.3425
Gi BRET (dEC50) ([7]; replicate 2): 0.267
Gi BRET (dEC50) ([7]; replicate 3): 0.275
Gαi efficacy increase ([8]; Csel2 receptor (Fig. 3a)): 30%
Gi BRET (dEC50) ([8]; replicate 1): -0.2255
Gi BRET (dEC50) ([8]; replicate 2): -0.0185
Gi BRET (dEC50) ([8]; replicate 3): -0.357

full-length V3Y: full-length chemokine incorporating the designed N-terminal tail V3Y
Migration Index ([3]; donor/replicate 1): 2.294
Migration Index ([3]; donor/replicate 2): 2.226
Migration Index ([3]; donor/replicate 3): 3.315
Migration Index ([3]; donor/replicate 4): 2.878
Migration Index ([3]; donor/replicate 5): 1.825
Migration Index ([6]; donor/replicate 1): 4.176
Migration Index ([6]; donor/replicate 2): 5.188
Migration Index ([6]; donor/replicate 3): 4.028

full-length V3Y-Y7L: full-length chemokine incorporating the designed N-terminal tail V3Y-Y7L
Migration Index ([3]; donor/replicate 1): 2
Migration Index ([3]; donor/replicate 2): 2.852
Migration Index ([3]; donor/replicate 3): 2.992
Migration Index ([4]; donor/replicate 1): 2.938
Migration Index ([4]; donor/replicate 2): 2.133
Migration Index ([4]; donor/replicate 3): 3.389
Migration Index ([4]; donor/replicate 4): 4.146
Migration Index ([4]; donor/replicate 5): 3.781
Migration Index ([4]; donor/replicate 6): 2.587
Migration Index ([5]; donor/replicate 1): 4.478
Migration Index ([5]; donor/replicate 2): 3.833
Migration Index ([5]; donor/replicate 3): 3.752
Migration Index ([5]; donor/replicate 4): 3.787

CC(C)C[C@H](NC(=O)[C@H](CO)NC(=O)[C@H](Cc1ccc(O)cc1)NC(=O)[C@@H]1CCCN1C(=O)[C@@H](N)CCCCN)C(=O)N[C@@H](CO)C(=O)N[C@@H](Cc1ccc(O)cc1)C(=O)N[C@@H](CCCNC(=N)N)C(=O)N[C@@H](CS)C(=O)N1CCC[C@H]1C(=O)N[C@@H](CS)C(=O)N[C@@H](CCCNC(=N)N)C(=O)N[C@@H](Cc1ccccc1)C(=O)N[C@@H](Cc1ccccc1)C(=O)N[C@@H](CCC(=O)O)C(=O)N[C@@H](CO)C(=O)N[C@@H](Cc1c[nH]cn1)C(N)=O [V3Y] (H-KPYSLSYRCPCRFFESH-NH2; N-terminus assumed)
enhanced potency ([9]; vs WT receptor–peptide pair): more than 80 -fold
Gi BRET (dEC50) ([9]; replicate 1): -2.1375
Gi BRET (dEC50) ([9]; replicate 2): -1.6575
Gi BRET (dEC50) ([9]; replicate 3): -1.8525
Gi BRET (dEC50) ([9]; replicate 4): -1.6695
Gi BRET (dEC50) ([9]; replicate 5): -1.8605

V3W: CXCL12(1-17) peptide variant V3W (KPWSLSYRCPCRFFESH-NH2; cysteine pairing not given here; UniProt P48061 22-38, looked up, variant V3W)
Efficacy, Gi ([9]; mean): 130.6 %WT-WT
Gi BRET (dEC50) ([9]; replicate 1): -1.8535
Gi BRET (dEC50) ([9]; replicate 2): -2.0125
Gi BRET (dEC50) ([9]; replicate 3): -2.163
